Experimental data reported in patent US8598177B2, “Imidazopyridazines as PAR1 inhibitors, production thereof, and use as medicaments” (Sanofi, priority 2008, dated 2013).
pIC50: −log10 of the molar value. Counter-ions that a name gives are not always drawn.

Biological target: T1, PAR1 (Homo sapiens, UniProt P25116)
T1 construct: endogenous in cells; host or cells: washed platelets prepared from platelet-rich plasma of healthy volunteer donors
T1 sequence (P25116 22-425): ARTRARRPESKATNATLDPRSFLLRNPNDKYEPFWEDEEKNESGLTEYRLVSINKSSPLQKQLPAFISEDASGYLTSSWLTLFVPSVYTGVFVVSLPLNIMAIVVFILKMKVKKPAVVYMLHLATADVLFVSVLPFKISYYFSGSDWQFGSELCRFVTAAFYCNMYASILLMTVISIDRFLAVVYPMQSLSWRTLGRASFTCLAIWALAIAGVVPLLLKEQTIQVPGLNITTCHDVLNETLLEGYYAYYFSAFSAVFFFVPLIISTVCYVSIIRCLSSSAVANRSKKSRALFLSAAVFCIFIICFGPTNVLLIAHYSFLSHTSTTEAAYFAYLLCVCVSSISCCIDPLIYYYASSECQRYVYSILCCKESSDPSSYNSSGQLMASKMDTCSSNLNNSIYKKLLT
Test: Inhibition of PAR1-mediated platelet aggregation induced by TRAP
Format: cell-based
Settings: washed platelets from healthy volunteer donors, TRAP (70-100 μM solution) as agonist, 96-well format, AUC at 650 nm, 37° C., 20 minutes
Method: PAR1 Determination Method: Inhibition of PAR1-Mediated Platelet Aggregation
The pharmacological testing of the substances took place in platelet aggregation induced by TRAP (thrombin receptor-activating peptide) in 96-well format. For this purpose, blood was taken from healthy volunteer donors in 20 ml syringes containing 2 ml of 3.13% sodium citrate solution. After centrifugation at 150×g for 20 minutes, the platelet-rich plasma (PRP) was separated off and mixed with 1 μl of PGE1 solution (500 μg/ml in ethanol)/ml of PRP. Incubation at room temperature for 5 minutes was followed by centrifugation at 120×g for 15 minutes to remove the leukocytes. The leukocyte-free PRP was transferred in 5 ml portions into 15 ml PP tubes and centrifuged at 360×g for 15 minutes in order to pellet the platelets. The plasma was then decanted off and the platelet sediment from 5 ml of PRP was resuspended in 1 ml of Tyrode's (120 mM NaCl, 2.6 mM KCl, 12 mM NaHCO3, 0.39 mM NaH2PO4×H2O, 10 mM HEPES, 0.35% BSA, 5.5 mM glucose, pH 7.4) and adjusted with Tyrode's to a platelet count of 3×10^5/microliter (4). 13 ml of this cell suspension were then mixed with 866 μL of 10 mM CaCl2 solution, and 120 μL thereof were pipetted into each well of a 96-well plate containing 15 μL of the substance to be tested. After incubation at room temperature in the dark for 30 minutes, 15 μL of a TRAP solution (70-100 μM) were added as agonist, and kinetics were recorded at 650 nm in a SpectraMax 340 at 37° C. for 20 minutes while shaking. The areas under the curves of negative control (Tyrode's/DMSO) and positive control (15 μl of agonist/DMSO) were calculated and the difference was fixed as the 100% value. The substances to be tested were pipetted as serial dilutions in duplicate determination, the AUC was likewise determined for each substance concentration, and the % inhibition of the AUC compared with the control was calculated. On the basis of the % inhibition, the IC50 was calculated by nonlinear regression analysis according to the 4-parameter equation.

Row | SMILES | pIC50
1 | COc1nn2c(=N)n(CC(=O)c3cc(N4CCOCC4)c(OC)c(C(C)(C)C)c3)cc2cc1OCC(F)(F)F [Example 4, 1-(3-tert-Butyl-4-methoxy-5-morpholin-4-ylphenyl)-2-[7-imino-2-methoxy-3-(2,2,2-trifluoroethoxy)imidazo[1,5-b]pyridazin-6-yl]ethanone as trifluoroacetic acid salt] | 6.74
2 | CCOc1cc2cn(CC(=O)c3cc(NC(C)=O)cc(S(F)(F)(F)(F)F)c3)c(=N)n2nc1OCC [Example 1, trifluoroacetic acid salt] | 8.30
3 | CCOc1cc2cn(CC(=O)c3cc(N4CCOCC4)c(OC)c(C(C)(C)C)c3)c(=N)n2nc1OCC [Example 3, 1-(3-tert-Butyl-4-methoxy-5-morpholin-4-ylphenyl)-2-(2,3-diethoxy-7-iminoimidazo-[1,5-b]pyridazin-6-yl)ethanone as trifluoroacetic acid salt] | 8.40
